Literature values in patent publication US20210106004A1, “THERMOPLASTIC MATERIALS HAVING BENEFICIAL PROPERTIES AND PROCESSES FOR PROVIDING THE SAME” (QuadSil, Inc., priority 2016, published 2021).

Settings: background statement

SMILES: CCCCCCCCCCCCCCCCCC[N+](C)(C)CCC[Si](OC)(OC)OC.[Cl-] [3-(trimethoxysilyl) propyldimethyloctadecyl ammonium chloride]
- temperature at which thermal decomposition begins: 125 °C
